Results: US20250302839A1 (D&D Biopharmaceuticals, Inc., priority 2024, published 2025)

Experiments:
human donor cornea [1] = experiment: Pre- and post-treatment evaluation of corneal integrity (epithelium, stroma, endothelium; specular microscopy); conditions: 10 mg/ml glutaric anhydride in 0.3M sodium phosphate buffer (pH 8.5), 60 seconds
Protocol: The agent used in this example was glutaric anhydride (GA). Paired human donor corneas were evaluated prior to treatment and immediately after treatment for intact epithelium, stroma, and endothelium. Riboflavin fluorescence for the GA treatment and the non-GA treatment control were compared. The test human cornea sample was labeled 21-095656 OD, and the control human cornea sample was labeled 21-095656 OS.
One pair human corneas were recovered by in situ removal by a certified eyebank technician and placed in LIFE4° C. and stored in Bausch & Lomb 20 ml viewing chambers, and stored at 2-8° C. Corneas were shipped on wet ice overnight to the treatment facility. Upon arrival, the corneas were warmed for 2±2 hours at 35° C. and evaluated for corneal integrity. […] At the time of the study, corneas were warmed for 2±2 hours at 35° C., and evaluated for corneal integrity.
The control and treated cornea samples were placed in a petri dish with the epithelial side up in a laminar flow hood with enough Life4° C. corneal preservation medium to fill the endothelial side of the human cornea with medium. […] Each sample was analyzed before treatment (FIGS. 1A-1C).
A single examiner performed all measurements. Corneal endothelium was evaluated utilizing a Konan Eyebank KeratoAnalyzer. […] Number of cells analyzed. • 8. […]

human donor cornea [2] = experiment: Penetration of riboflavin into human donor cornea, evaluated by fluorescence microscopy; assay type: in vitro ADME

O=C1CCCC(=O)O1 [glutaric anhydride]
effect on corneal epithelium, stroma and endothelium post-treatment (human donor cornea [1]): did not adversely affect the corneal epithelium, stroma or endothelium
disruption of corneal cell junctures permitting riboflavin diffusion (human donor cornea [2]; 10 mg/ml glutaric anhydride in 0.3M sodium phosphate buffer (pH 8.5), 1.0 ml for 60 seconds, continuous drops): disrupt cell junctures to permit diffusion of riboflavin through the epithelium and deep into the corneal stroma

Cc1cc2nc3c(=O)[nH]c(=O)nc-3n(C[C@H](O)[C@H](O)[C@H](O)CO)c2cc1C [riboflavin, reference compound]
time until riboflavin fluorescence was exhibited (human donor cornea [2]; test cornea 21-095656 OD, after 10 mg/ml buffered glutaric anhydride solution for 60 seconds, riboflavin 1.46 mg/ml in PBS, 2 x 0.5 mL, intact epithelium): ≤ 2 min
